According to PubChem BioAssay (NCI):
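Where inhibition never reached the appropriate level, the endpoint shown equals the highest concentration tested. Otherwise, values were interpolated linearly from a five-concentration, 48-hour dose response in 96-well plates. Abbreviation: GI50, concentration required for 50% inhibition of growth. TGI is the concentration that stops growth completely.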

Assays:
Experiment in all cases: NCI anticancer screen, dose series, 48 h
[1] = system: EKVX NSCLC
[2] = system: MDA-MB-231 breast
[3] = system: T-47D breast
[4] = system: MDA-MB-435
[5] = system: A549 NSCLC
[6] = system: ACHN renal
[7] = system: SK-MEL-5 melanoma
[8] = system: UO-31 renal
[9] = system: SW-620 colon
[10] = system: CAKI-1 renal
[11] = system: SF-295 CNS
[12] = system: MCF7 breast
[13] = system: UACC-257 melanoma
[14] = system: LOX IMVI melanoma
[15] = system: UACC-62 melanoma
[16] = system: DU-145 prostate
[17] = system: RXF 393 renal
[18] = system: HT29 colon
[19] = system: OVCAR-4 ovarian
[20] = system: SF-268 CNS
[21] = system: NCI/ADR-RES ovarian
[22] = system: CCRF-CEM leukemia
[23] = system: NCI-H460 lung
[24] = system: HS 578T breast
[25] = system: M14 melanoma
[26] = system: COLO 205 colon
[27] = system: MALME-3M melanoma
[28] = system: KM12 colon
[29] = system: SK-MEL-2 melanoma

## N#C/C(=N\Nc1ccc(F)cc1)C(=O)Nc1cc(-c2ccccc2)nn1-c1ccccc1
[1]
  GI50: 2.84 µM
  TGI: 15.3 µM
[2]
  GI50: 1.99 µM
  TGI: 5.6 µM
[3]
  GI50: 1.63 µM
  TGI: > 100 µM
[4]
  GI50: 2.55 µM
  TGI: > 100 µM
[5]
  GI50: 2.45 µM
  TGI: 15.6 µM
[6]
  GI50: 2.55 µM
  TGI: 10.5 µM
[7]
  GI50: 0.821 µM
  TGI: 3.16 µM
[8]
  GI50: 2.5 µM
  TGI: 13.4 µM
[9]
  GI50: 3.16 µM
  TGI: 20.4 µM
[10]
  GI50: 1.56 µM
  TGI: 8.72 µM
[11]
  GI50: 1.66 µM
  TGI: 5.75 µM
[12]
  GI50: 2.11 µM
  TGI: 11.4 µM
[13]
  GI50: 1.54 µM
  TGI: 8.69 µM
[14]
  GI50: 4.54 µM
  TGI: 17.7 µM
[15]
  GI50: 0.853 µM
  TGI: 17 µM
[16]
  GI50: 3.62 µM
  TGI: 20.8 µM
[17]
  GI50: 2.24 µM
  TGI: 7 µM
[18]
  GI50: 3.07 µM
  TGI: 11.6 µM
[19]
  GI50: 2.39 µM
  TGI: 21.8 µM
[20]
  GI50: 2.37 µM
  TGI: 25.9 µM
[21]
  GI50: 2.85 µM
  TGI: 12.1 µM
[22]
  GI50: 1.21 µM
  TGI: 9.31 µM
[23]
  GI50: 2.02 µM
  TGI: 10.2 µM
[24]
  GI50: 3.39 µM
  TGI: 53.8 µM
[25]
  GI50: 2.84 µM
  TGI: > 100 µM
[26]
  GI50: 1.82 µM
  TGI: 3.6 µM
[27]
  GI50: 1.85 µM
  TGI: 13.4 µM
[28]
  GI50: 2.75 µM
  TGI: 33.4 µM
[29]
  GI50: 1.22 µM
